One may read the viability as a read-out of living cells in per cent, often relative to untreated cells.

A short description of this series: in vitro. The following applies: human, hela cells, % viability.
Consider `Cc1ccc(Oc2ncccc2[N+](=O)[O-])c(Br)c1` [CBK002822], for which the viability at 28.5 h, 10 µM came out at 94.8%.

As to `CC(=O)c1ccc(-c2nccnc2NCCc2ccncc2)s1` [CBK037300], the viability at 28.5 h, 10 µM turned out to be 99.9%.

Consider `Cc1ccccc1COc1cccn2c(N(C)CC3CCCO3)c(C)nc12` (stereo not shown) [CBK147231], for which the viability at 28.5 h, 10 µM came to 115%.

`Cc1cc(-c2nccnc2N2CCN(CCN(C)C)CC2)cc(C)c1O` [CBK037184]: the viability at 28.5 h, 10 µM is 105%.

On to `O=C(C1CC1)N1CC2CCCC(C1)C2(O)c1cccnc1F` (stereo not shown) [CBK282889], for which the viability at 28.5 h, 10 µM was 99.6%.

On to `Cc1ccn(CCNC(=O)c2ccc3c(C)c(C)[nH]c3c2)n1` [CBK282519], for which the viability at 28.5 h, 10 µM was 101%.

Turning to `O=C(O)CCCC(=O)NCc1cccnc1` [CBK261708], the viability at 28.5 h, 10 µM was 106%.

For the compound `CC1(C)COC(CCN2CCN(c3ccc(F)cc3)CC2)c2ccccc21` (stereo not shown) [CBK024080C], the viability at 28.5 h, 10 µM amounted to 105%.

In the case of `CN(C)CCN(C)C(=O)c1ccc(-c2ccc3c(c2)OCO3)nc1N(C)C` [CBK106072], the viability at 28.5 h, 10 µM came out at 92.7%.

Regarding `COc1cc2c(c(OC)c1OC)CC(=O)NC21CCN(C(=O)CC(C)CC(=O)O)CC1` (stereo not shown) [CBK047265], the viability at 28.5 h, 10 µM worked out at 94.8%.

Take `CC(=O)NCC1CC(c2ccc(C3=CCN(C(C)=O)CC3)cc2)=NO1` (stereo not shown) [CBK010245]: the viability at 28.5 h, 10 µM is 86.8%.

Turning to `O=C(COc1ccc(Cl)cc1)NNC(=O)c1cccnc1` [CBK261044], the viability at 28.5 h, 10 µM is 97.4%.

With `COc1cccc(-c2nnnn2[C@H]2CO[C@H]3[C@@H]2OC[C@@H]3NC(=O)c2ccc(C)cc2)c1` [CBK289512], the viability at 28.5 h, 10 µM was 94.1%.

Regarding `O=C(O)CCCNS(=O)(=O)/C=C/c1ccccc1` [CBK287170], the viability at 28.5 h, 10 µM came to 85.1%.

As for `O=C(O)CCc1ccc(-c2cn3ccnc3c(N3CCOCC3)n2)cc1` [CBK066166], the viability at 28.5 h, 10 µM was determined as 93.6%.

In the case of `COc1ccc(OC)c(/N=C2\CC(=O)CC(C)(C)C2)c1` [CBK020541], the viability at 28.5 h, 10 µM came out at 106%.

For `CN(C)S(=O)(=O)c1ccc(C(=O)C2=C(O)C(=O)N(CCN3CCOCC3)C2c2ccccc2)cc1` (stereo not shown) [CBK264540], the viability at 28.5 h, 10 µM turned out to be 111%.

Turning to `CC(NC(=O)C1(Cn2ccnc2)CC1)c1nc(-c2ccccn2)no1` (stereo not shown) [CBK307514], the viability at 28.5 h, 10 µM stood at 107%.

On to `O=C(O)c1cccc(NS(=O)(=O)c2cccc([N+](=O)[O-])c2)c1` [CBK155711], for which the viability at 28.5 h, 10 µM came to 99.2%.

`O=C(CCN1C(=O)COc2ccccc21)Nc1ccnn1Cc1ccccc1Br` [CBK296740]: the viability at 28.5 h, 10 µM was found to be 99.8%.

Consider `c1cncc(COc2cncc(OC3CCN(CCN4CCOCC4)C3)n2)c1` (stereo not shown) [CBK084463], for which the viability at 28.5 h, 10 µM turned out to be 99.7%.

Regarding `COc1ccc2[nH]cc(CCNC(=O)c3ccc(NC(C)=O)cc3)c2c1` [CBK269296], the viability at 28.5 h, 10 µM was found to be 96.6%.

`CCOCC(=O)N(C)C1CCN(c2ncnc3ccccc23)CC1` [CBK306247]: the viability at 28.5 h, 10 µM worked out at 89.1%.

Take `Cc1noc(C)c1C[S+]([O-])c1ccc(Br)cc1` (stereo not shown) [CBK034195]: the viability at 28.5 h, 10 µM is 95.6%.

Regarding `CSc1nsc(SCC(=O)N(c2ccccc2)c2ccccc2)n1` [CBK269361], the viability at 28.5 h, 10 µM turned out to be 95.3%.

On to `CC(=O)NCCc1c(C(=O)O)[nH]c2ccc(OCc3ccccc3)cc12` [CBK260945], for which the viability at 28.5 h, 10 µM was 87.8%.

As for `O=C(CC1CCCCO1)Nc1cccc(Cn2ccnc2)c1` (stereo not shown) [CBK282204], the viability at 28.5 h, 10 µM came to 90.6%.

In the case of `O=C(c1nccs1)C1CCN(C(=O)C2(c3ccccc3)CC2)CC1` [CBK284206], the viability at 28.5 h, 10 µM came out at 97.4%.

Consider `CC(Oc1ccc(Cl)cc1Cl)C(=O)NC(=S)Nc1ccc2c(c1)C(=O)N(C)C2=O` (stereo not shown) [CBK267356], for which the viability at 28.5 h, 10 µM came to 93.9%.

As to `Cc1noc(C)c1CCC(=O)NC(Cc1ccncc1)C1CC(O)C1` (stereo not shown) [CBK306790], the viability at 28.5 h, 10 µM was 91%.

As to `COc1cc([C@@]23CCC(=O)C[C@@H]2N(C)CC3)ccc1OCc1ccccc1` [CBK049727], the viability at 28.5 h, 10 µM was found to be 106%.

Turning to `O=C(Cn1cc(C(=O)NCC2(c3ccccc3Cl)CC2)ccc1=O)NC1CCCCC1` [CBK285985], the viability at 28.5 h, 10 µM stood at 92.7%.

For the compound `CNc1nc(N(C)C)nc(-n2cnc(SCCOc3ccccc3C)n2)n1` [CBK288564], the viability at 28.5 h, 10 µM was 92.4%.

Take `O=C(CN1CCOCC1)N1CCC(Cn2cncn2)(C2CCCCC2)CC1` [CBK136803]: the viability at 28.5 h, 10 µM turned out to be 95.7%.

Regarding `COC(=O)c1c(NC(=O)COc2ccc(Br)cc2)sc2c1CCC2` [CBK263369], the viability at 28.5 h, 10 µM worked out at 89.9%.

Turning to `COc1ccc(OCC(=O)NNC(=O)c2cnccn2)cc1` [CBK262619], the viability at 28.5 h, 10 µM stood at 98.1%.

Take `Cc1ccc(Nc2nc(CSc3nnc(-c4ccccc4)o3)cs2)cc1` [CBK268455]: the viability at 28.5 h, 10 µM was 99.7%.

In the case of `Clc1cccc(CNc2nccnc2-c2ccoc2)c1` [CBK036616], the viability at 28.5 h, 10 µM turned out to be 105%.

Consider `C/C(=N\NC(=O)CCN1CCN(C)CC1)c1ccc(O)cc1` [CBK263142], for which the viability at 28.5 h, 10 µM was 92.2%.

As for `CCn1c(N2CCC(C(=O)NC3CC3)CC2)nc2ccccc21` [CBK283922], the viability at 28.5 h, 10 µM was 92.7%.

For the compound `Cc1ccc(S(=O)(=O)Nc2ccc(N3CCCNCC3)cc2N(C)S(C)(=O)=O)cc1` [CBK000017C], the viability at 28.5 h, 10 µM was 113%.

As for `CC(=O)Nc1nnc(-c2ccc3c(c2)CCCC3)o1` [CBK287426], the viability at 28.5 h, 10 µM was 88%.

As for `COC(=O)C1=C(C)N(c2ccc(C(=O)O)cc2)C(=O)NC1c1cccc(OC)c1OC` (stereo not shown) [CBK295355], the viability at 28.5 h, 10 µM worked out at 112%.

Take `C(=C\C1Nc2ccccc2-c2nnc(SCc3ccccc3)nc2O1)/c1ccccc1` (stereo not shown) [CBK264447]: the viability at 28.5 h, 10 µM stood at 112%.

As to `N#CCCSc1nnc(-c2cccnc2)n1Cc1ccccc1` [CBK267526], the viability at 28.5 h, 10 µM amounted to 100%.

Consider `Cc1cc(C)nc(SCCCn2c(=O)[nH]c3ccccc32)n1` [CBK264485], for which the viability at 28.5 h, 10 µM came out at 112%.

On to `CS(=O)(=O)c1ccc(-n2ncc(-c3ccc(C(F)(F)F)cc3)n2)cc1` [CBK112698], for which the viability at 28.5 h, 10 µM is 90%.

Take `Cc1ccc2c(CC(=O)NCCn3cncn3)coc2c1` [CBK283240]: the viability at 28.5 h, 10 µM amounted to 93.8%.

For `C=C(C)CN1CCN(C(C(=O)O)c2c[nH]c3ccc(OCc4ccccc4)cc23)CC1` (stereo not shown) [CBK286668], the viability at 28.5 h, 10 µM was 80.6%.

`Cc1ccnn1CCC(=O)N1CCn2cc(C(F)(F)F)nc2C1` [CBK283912]: the viability at 28.5 h, 10 µM was 110%.

`O=C(O)C1CC=CCC1C(=O)Nc1ccc(S(=O)(=O)N2CCCc3ccccc32)cc1` (stereo not shown) [CBK268179]: the viability at 28.5 h, 10 µM came out at 94.8%.

`CN(C)S(=O)(=O)Nc1ccc(-c2nnn[nH]2)cc1` [CBK156312]: the viability at 28.5 h, 10 µM amounted to 96.2%.

As for `CN(C)CCNC(=O)c1ccc(-c2cnc3[nH]c(=O)n(C4CCCC4)c3n2)cc1` [CBK064957], the viability at 28.5 h, 10 µM amounted to 110%.

Take `CN(c1nc(-c2cccnc2)cn2ccnc12)C1CCCCC1` [CBK093609]: the viability at 28.5 h, 10 µM stood at 87%.

As to `O=C(O)CCSc1nnc(-c2cccc(Br)c2)o1` [CBK286540], the viability at 28.5 h, 10 µM was determined as 82.8%.

As to `C=Cn1ncc(CN(CCCn2ccnc2)CC2CC=CCC2)c1C` (stereo not shown) [CBK283219], the viability at 28.5 h, 10 µM turned out to be 96.8%.

Regarding `Cn1c2c(c(=O)n(C)c1=O)[C@@H]1C(C[C@](O)(CO)[C@H]1O)C1(CCC1)N2` (stereo partly shown) [CBK303264], the viability at 28.5 h, 10 µM turned out to be 118%.

Consider `Cc1csc(C(Cc2ccsc2)NC(=O)C2CCCO2)n1` (stereo not shown) [CBK285122], for which the viability at 28.5 h, 10 µM was 107%.

For `O=C(CCn1ncc2ccccc21)N1CCC(c2ccncc2)CC1` [CBK282395], the viability at 28.5 h, 10 µM stood at 82%.

As to `Cn1c(SCC(=O)Nc2ccc(Br)cc2C(F)(F)F)nnc1-c1ccncc1` [CBK265905], the viability at 28.5 h, 10 µM was determined as 84.4%.

In the case of `CC(C)NC(=O)NC[C@H]1C[C@@H]2CCN1C[C@@H]2c1cc(C2CCCC2)nn1C` [CBK288744], the viability at 28.5 h, 10 µM was 96.5%.

For the compound `O=C(COc1ccc(Cl)cc1)NCCc1ccc(S(=O)(=O)NC(=O)NC2CCCCC2)cc1` [CBK013261], the viability at 28.5 h, 10 µM stood at 92.4%.

On to `Cc1nc(-c2ccc(NCCc3nc(C4CC4)cs3)nc2)[nH]c(=O)c1C` [CBK304424], for which the viability at 28.5 h, 10 µM amounted to 108%.

On to `CCc1nc2ccc(C(=O)Nc3ccc(NC(C)=O)cc3)cn2c1N(CC)Cc1ccc(OC)c(OC)c1` [CBK146994], for which the viability at 28.5 h, 10 µM is 97.8%.

For `COC(=O)c1cc(CN2CCCN(S(=O)(=O)c3ccc(C(=O)c4ccccc4)cc3)CC2)cn1C` [CBK062770], the viability at 28.5 h, 10 µM turned out to be 97.2%.

For `CCN(CC)C(=O)c1sc2ccccc2c1Cl` [CBK067853], the viability at 28.5 h, 10 µM was determined as 103%.

`CCn1cc(S(=O)(=O)Nc2cc(C)on2)cn1` [CBK270302]: the viability at 28.5 h, 10 µM stood at 84.3%.

As for `O=C(CN1CCC(c2nc3ccccc3[nH]2)CC1)Nc1ccc(F)cc1` [CBK287720], the viability at 28.5 h, 10 µM came out at 90%.

For `COc1nccnc1OC1CCN(CC2CCCCC2)CC1` [CBK084263], the viability at 28.5 h, 10 µM is 96.2%.

Take `O=c1[nH]c2ncc(-c3cccc(Br)c3)nc2n1CCc1cccnc1` [CBK064457]: the viability at 28.5 h, 10 µM turned out to be 103%.

As to `Cc1ccc(N2C(=O)/C(=C/c3ccc(O)c(O)c3)SC2=S)cc1C` [CBK262756], the viability at 28.5 h, 10 µM is 76.8%.

On to `CC(=O)NCCNC(=O)c1cc(Br)c[nH]1` [CBK297767], for which the viability at 28.5 h, 10 µM worked out at 88.3%.

As for `O=C(Nc1cccc(Cl)c1)N(Cc1ccncc1)CC1CCCO1` (stereo not shown) [CBK305362], the viability at 28.5 h, 10 µM was found to be 93%.

With `Cc1ccc(-c2nc3ncccc3o2)cc1NC(=S)NC(=O)c1ccc(-c2cccc([N+](=O)[O-])c2)o1` [CBK268294], the viability at 28.5 h, 10 µM was determined as 102%.

For the compound `O=C(CSc1nnnn1-c1ccc(O)cc1)NC1CCCC1` [CBK295659], the viability at 28.5 h, 10 µM came out at 90.6%.

For the compound `O=c1[nH]cc(-c2ccc(F)cc2)cc1CNCc1ccc(F)cc1` [CBK284695], the viability at 28.5 h, 10 µM is 96.1%.

As for `O=C(N[C@H]1CCN2C(=O)c3cc(-c4ccccc4F)ccc3NC(=O)[C@@H]2C1)c1cnccn1` [CBK289558], the viability at 28.5 h, 10 µM came to 118%.

`O=c1[nH]c2ccccc2n1CCCN1CCN(c2nccnc2Oc2ccc(F)cc2)CC1` [CBK083027T]: the viability at 28.5 h, 10 µM turned out to be 88.2%.

For the compound `O=c1nc(NC2CCCCC2)sc2ncccc12` [CBK067024T], the viability at 28.5 h, 10 µM is 92.6%.

For the origin of these results see publication PMC12040169 (PLOS Biology, 2025).
